Values joined by “and” are separate entries in the source; they are usually repeats but may differ in a detail not shown here. Identical values can stand only once.
Test system: 485176-168-R4-J1-PDC spheroids with HUVEC/MSC, viability
Assay: Anticancer human tumor 485176-168-R4-J1-PDC patient-derived pancreatic adenocarcinoma cell line growth inhibition [GQUAD]
Conditions: for viability, T/C: stronger effect = lower value
Source text: DNA G-quadruplex Stabilizer Agents in Combinations in Complex Spheroids
A high-throughput screen of multi-cell type tumor spheroids was designed to identify active combinations of DNA G-quadruplex stabilizer agents and targeted small molecules. Complex spheroids include a stromal component modeled by human endothelial cells (HUVEC) and fibroblasts modeled by human mesenchymal stem cells (MSCs). The concentration ranges selected for each drug and investigational agent were based upon clinically achievable concentrations if the clinical Cmax of the agent was known.
Compounds. The drugs and investigational agents: pidnarulex (CX-5461; NSC782164), APTO-253 (NSC789042), BRACO-19 (NSC847499), peposertib (NSC802822), ceralasertib (NSC780249), elimusertib (NSC800525), camonsertib (NSC841442), AZD-1390 (NSC803789), olaparib (NSC753686), talazoparib (NSC767125), ART-558 (NSC835418), sotorasib (NSC818433), MRTX-1133 (NSC836407), SN-38 (NSC673596), topotecan (NSC609699), etoposide (NSC141540), doxorubicin (NSC123127), gemcitabine (NSC613327), 5-fluorouracil (NSC19893), paclitaxel (NSC125973), vemurafenib (NSC761431), panobinostat (NSC761190), R-306465 (JNJ-16241199; NSC773264), adavosertib (NSC754352), TP-3654 (NSC805149), carboplatin (NSC241240), KSQ-4279 (NSC840948), and staurosporine (NSC755774) were obtained from the National Cancer Institute (NCI) Developmental Therapeutics Program Chemical Repository (34). The FDA-approved anticancer drug set is available from the NCI Developmental Therapeutics Program. […] The stock solutions were prepared in dimethyl sulfoxide (DMSO, Sigma-Aldrich, St. Louis, MO, cat. D2650) at 800-fold the tested concentration and stored at -70 degrees C prior to their use. All drugs and investigational agents were tested over a range starting from a high concentration at or near the clinical Cmax and decreasing in half-log increments. If the clinical Cmax for an agent had not been determined, the highest concentration tested was 10 microM.
2.3 Cell Culture. All cells were maintained in an incubator at 37 degrees C and 5% CO2 with 95% humidity. The PDC lines were cultured according to standard operating procedures established by the NCI PDMR. All PDCs were thawed and cultured in Matrigel-coated flasks prepared with a working solution of 1X Ham's F-12 nutrient mix, without supplementation (Invitrogen, cat. 11765054), 100 U/mL penicillin-streptomycin (Invitrogen, cat. 15140122), and 2.5% Matrigel (Corning Inc., cat. 354248) for the first three passages. The 857933-349-R-J2-PDC line was cultured in 6C/Colon 1B media, which includes advanced DMEM/F-12 (Thermo Fisher Scientific, cat. 12634028), 10 mM HEPES (Thermo Fisher Scientific, cat. 15630080), 1X GlutaMAX supplement (Thermo Fisher Scientific, cat. 35050061), 0.1 mg/mL primocin (InvivoGen, cat. ant-pm-2), 10% defined fetal bovine serum, heat inactivated (HyClone Laboratories Inc., cat. SH30070.03HI), 50% L-WRN conditioned media (ATCC, cat. CRL-3276), 1.25 mM N-Acetyl-L-cysteine (Sigma-Aldrich, cat. A9165), 10 mM nicotinamide (Sigma-Aldrich, cat. N0636), 1X B-27 supplement (Thermo Fisher Scientific, cat. 17504044), 1X N-2 supplement (Thermo Fisher Scientific, cat. 17502048), 10 microM Y-27632 dihydrochloride (Tocris Bioscience, cat. 1254), and 50 ng/mL human EGF recombinant protein (Thermo Fisher Scientific, cat. PHG0311). The 485176-168-R4-J1-PDC line was cultured in Panc media, which includes all 6C/Colon 1B media components plus 100 ng/mL human FGF-10 (Thermo Fisher Scientific, cat. 100-26), 500 nM SB-431542 (Selleckchem, cat. S1067), and gastrin (Tocris, cat. 3006).
[…]

[1] = curve of first compound, second compound 0.0316 µM
[2] = curve of first compound, second compound 0.1 µM
[3] = curve of first compound, second compound 0.316 µM
[4] = curve of first compound, second compound 1 µM
[5] = curve of first compound, second compound 3.16 µM
[6] = curve of first compound, second compound 10 µM
[7] = second compound 0.0316 µM, first compound 0.0316 µM
[8] = second compound 0.0316 µM, first compound 0.316 µM
[9] = second compound 0.1 µM, first compound 0.0316 µM
[10] = second compound 0.1 µM, first compound 0.316 µM
[11] = second compound 0.316 µM, first compound 0.0316 µM
[12] = second compound 0.316 µM, first compound 0.316 µM
[13] = second compound 1 µM, first compound 0.0316 µM
[14] = second compound 1 µM, first compound 0.316 µM
[15] = second compound 3.16 µM, first compound 0.0316 µM
[16] = second compound 3.16 µM, first compound 0.316 µM
[17] = second compound 10 µM, first compound 0.0316 µM
[18] = second compound 10 µM, first compound 0.316 µM
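Also: spheroids exposed to compounds for seven days before readout.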
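For viability, T/C in this document: percent viability relative to DMSO vehicle control wells as 100%.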

## CCc1c2c(nc3ccc(O)cc13)-c1cc3c(c(=O)n1C2)COC(=O)[C@]3(O)CC + Cc1cnc(CNC(=O)c2c(=O)c3ccc(N4CCCN(C)CC4)nc3n3c2sc2ccccc23)cn1
[1]
  IC50: 3.5 nM
[2]
  IC50: 1.5 nM
[3]
  IC50: 1.67 nM
[4]
  IC50: < 0.999 nM
[5]
  IC50: < 0.999 nM
[6]
  IC50: < 0.999 nM
Second compound 0.0316 µM, first compound 0.000999 µM
  viability, T/C: 79.5%
Second compound 0.0316 µM, first compound 0.00316 µM
  viability, T/C: 47.6%
Second compound 0.0316 µM, first compound 0.00999 µM
  viability, T/C: 36%
[7]
  viability, T/C: 19.6%
Second compound 0.0316 µM, first compound 0.0999 µM
  viability, T/C: 12.6%
[8]
  viability, T/C: 4.96%
Second compound 0.1 µM, first compound 0.000999 µM
  viability, T/C: 54.7%
Second compound 0.1 µM, first compound 0.00316 µM
  viability, T/C: 42.7%
Second compound 0.1 µM, first compound 0.00999 µM
  viability, T/C: 26.6%
[9]
  viability, T/C: 21.9%
Second compound 0.1 µM, first compound 0.0999 µM
  viability, T/C: 11.4%
[10]
  viability, T/C: 4.78%
Second compound 0.316 µM, first compound 0.000999 µM
  viability, T/C: 53%
Second compound 0.316 µM, first compound 0.00316 µM
  viability, T/C: 47%
Second compound 0.316 µM, first compound 0.00999 µM
  viability, T/C: 30.9%
[11]
  viability, T/C: 19.5%
Second compound 0.316 µM, first compound 0.0999 µM
  viability, T/C: 10.7%
[12]
  viability, T/C: 5.12%
Second compound 1 µM, first compound 0.000999 µM
  viability, T/C: 40.2%
Second compound 1 µM, first compound 0.00316 µM
  viability, T/C: 38.9%
Second compound 1 µM, first compound 0.00999 µM
  viability, T/C: 33.2%
[13]
  viability, T/C: 20%
Second compound 1 µM, first compound 0.0999 µM
  viability, T/C: 11.9%
[14]
  viability, T/C: 5.51%
Second compound 3.16 µM, first compound 0.000999 µM
  viability, T/C: 42.6%
Second compound 3.16 µM, first compound 0.00316 µM
  viability, T/C: 35%
Second compound 3.16 µM, first compound 0.00999 µM
  viability, T/C: 27.3%
[15]
  viability, T/C: 22.1%
Second compound 3.16 µM, first compound 0.0999 µM
  viability, T/C: 11.1%
[16]
  viability, T/C: 6.82%
Second compound 10 µM, first compound 0.000999 µM
  viability, T/C: 33.8%
Second compound 10 µM, first compound 0.00316 µM
  viability, T/C: 29.4%
Second compound 10 µM, first compound 0.00999 µM
  viability, T/C: 25.1%
[17]
  viability, T/C: 19.9%
Second compound 10 µM, first compound 0.0999 µM
  viability, T/C: 5.56%
[18]
  viability, T/C: 0.25%

## C=CCn1c(=O)c2cnc(Nc3ccc(N4CCN(C)CC4)cc3)nc2n1-c1cccc(C(C)(C)O)n1 + Cc1[nH]c2ccc(F)cc2c1-c1nc2c3cccnc3c3ncccc3c2[nH]1
[1]
  IC50: 401 nM
[2]
  IC50: 386 nM
[3]
  IC50: 469 nM
[4]
  IC50: 468 nM
[5]
  IC50: 360 nM
[6]
  IC50: 309 nM
[7]
  viability, T/C: 103%
Second compound 0.0316 µM, first compound 0.1 µM
  viability, T/C: 96.9%
[8]
  viability, T/C: 55.1%
Second compound 0.0316 µM, first compound 1 µM
  viability, T/C: 22.6%
Second compound 0.0316 µM, first compound 3.16 µM
  viability, T/C: 7.84%
Second compound 0.0316 µM, first compound 10 µM
  viability, T/C: 3.33%
[9]
  viability, T/C: 105%
Second compound 0.1 µM, first compound 0.1 µM
  viability, T/C: 82.8%
[10]
  viability, T/C: 60.2%
Second compound 0.1 µM, first compound 1 µM
  viability, T/C: 20%
Second compound 0.1 µM, first compound 3.16 µM
  viability, T/C: 7.9%
Second compound 0.1 µM, first compound 10 µM
  viability, T/C: 4.23%
[11]
  viability, T/C: 98.2%
Second compound 0.316 µM, first compound 0.1 µM
  viability, T/C: 81.1%
[12]
  viability, T/C: 65.8%
Second compound 0.316 µM, first compound 1 µM
  viability, T/C: 25%
Second compound 0.316 µM, first compound 3.16 µM
  viability, T/C: 6.26%
Second compound 0.316 µM, first compound 10 µM
  viability, T/C: 4.73%
[13]
  viability, T/C: 115%
Second compound 1 µM, first compound 0.1 µM
  viability, T/C: 94.4%
[14]
  viability, T/C: 66.7%
Second compound 1 µM, first compound 1 µM
  viability, T/C: 22%
Second compound 1 µM, first compound 3.16 µM
  viability, T/C: 7.76%
Second compound 1 µM, first compound 10 µM
  viability, T/C: 4.28%
[15]
  viability, T/C: 114%
Second compound 3.16 µM, first compound 0.1 µM
  viability, T/C: 75.1%
[16]
  viability, T/C: 63.7%
Second compound 3.16 µM, first compound 1 µM
  viability, T/C: 23.2%
Second compound 3.16 µM, first compound 3.16 µM
  viability, T/C: 6.68%
Second compound 3.16 µM, first compound 10 µM
  viability, T/C: 4.03%
[17]
  viability, T/C: 101%
Second compound 10 µM, first compound 0.1 µM
  viability, T/C: 82.4%
[18]
  viability, T/C: 50.1%
Second compound 10 µM, first compound 1 µM
  viability, T/C: 18.9%
Second compound 10 µM, first compound 3.16 µM
  viability, T/C: 5.54%
Second compound 10 µM, first compound 10 µM
  viability, T/C: 3.76%

## CC[C@@]1(O)C(=O)OCc2c1cc1n(c2=O)Cc2cc3c(CN(C)C)c(O)ccc3nc2-1
Compound 0.000999 µM
  viability, T/C: 103% and 99% and 108%
Compound 0.00316 µM
  viability, T/C: 99.1% and 96.4% and 81%
Compound 0.00999 µM
  viability, T/C: 89.2% and 94.7% and 93%
Compound 0.0316 µM
  viability, T/C: 64.6% and 100% and 90.4%
Compound 0.0999 µM
  viability, T/C: 54.2% and 66.9% and 58.7%
Compound 0.316 µM
  viability, T/C: 31.3% and 35.5% (2×)
Curve of compound
  IC50: 102 nM and 185 nM and 154 nM
